Here are results for one compound from patent US20260224555A1, “NEW PHENYLQUINOLONE COMPOUND HAVING ANTIBACTERIAL AND ANTI-CANCER FUNCTIONS AND PREPARATION THEREOF” (AlphaMol Science Ltd (Shanghai), priority 2022, published 2026).

What is called MIC is the smallest concentration in the dilution series that meets the test's criterion for growth inhibition.

Where two headings read alike, the source gives them in different places.

For assay [1], the system named is S. aureus ATCC 43300. Kind of assay: In vitro antibacterial activity assay (MIC, broth dilution). Conditions: Staphylococcus aureus, ATCC43300. Format: cell-based. The text has this:
(§1) The method used to indicate the activity of the compounds in this example is to record the minimum inhibitory concentration (MIC) of the compounds against bacteria. The specific experimental method is as follows:
(§2) 1. The bacterial liquid cultured from a single colony was taken, and diluted into autoclaved CAMHB broth in a ratio of 1:1000, and mixed well.
(§3) 2. The prepared drug solution was filtered through a sterile 0.22 µm syringe filter and placed in a sterile EP tube for later use.
(§4) 3. A 96-well plate was taken, and 20 µL of drug solution ([…]) was added to each well in the first column of the 96-well plate. Then, 180 µL of diluted bacterial liquid was added and mixed well (Perform 3 replicate rows for each drug).
(§5) The same process was performed for the hydrochloride drug.
(§6) 4. 100 μL of diluted bacterial liquid was added to each well in the remaining 11 columns of the 96-well plate. Drugs are the same as above.
(§7) 5. Serial dilution: 100 μL of liquid was taken from the first column to the second column, mixed well, then 100 μL of liquid was taken from the second column to the third column, mixed well, and so on, sequentially diluting down to the last column (column 12). After mixing column 12 well, 100 μL of liquid thereof was discarded. The drug concentration in each well was decreased by two-fold serially (the concentration in the first well is 40 μg/mL).
(§8) 6. Blank CAMHB broth without added bacteria liquid was added to 3 blank wells in the 96-well plate, as negative control.
(§9) 7. The diluted bacterial liquid was added to 3 blank wells in the 96-well plate, as positive control.
(§10) 8. Incubated at 37° C. for 16 hours.
(§11) 9. Results reading: the minimum inhibitory concentration is the minimum drug concentration at which no bacterial growth is visible to the naked eye and without turbidity.

In assay [2] the test system is E. coli ATCC 25922. The assay is described as above. Type of assay: cell-based. Particulars: Escherichia coli, ATCC25922.
Source text: as §1, §2, §3, §4, §5, §6, §7, §8, §9, §10, §11

Consider `O=C(CCl)Nc1ncc(-c2cc3c(cc2F)c(=O)c(C(=O)O)cn3C2CC2)cc1F` [Example 135], for which the MIC was ≤ 0.1 µg/mL in assay [1] (Table 3, read-out: MIC S. aureus ATCC 43300); ≤ 1 µg/mL in assay [1] (Table 4, read-out: S. aureus ATCC 43300 MIC); ≤ 0.1 µg/mL in assay [2] (Table 3, read-out: MIC E. coli ATCC 25922); ≤ 1 µg/mL in assay [2] (Table 4, read-out: E. coli ATCC 25922 MIC).
